Measurements from US9694087B2, “Development of novel macromolecule transduction domain with improved cell permeability and method for using same” (priority 2011, dated 2017).
Where a SMILES comes first, the peptide text is derived from it. Where no end group is shown, it is not given here. The star is where a group is joined. X1 = O=C(C=Cc1ccc(O)cc1)*

Tests used:
HeLa cells = assay: Visible cell permeability by confocal microscopy, cervix adenocarcinoma cells; assay type: cell-based, human; details: 5 μM, 1 hour, FIG. 10
Experimental: Cell permeability of HeLa cells (HeLa cell, Human cervix adenocarcinoma, Cat No. CCL-2, ATCC, USA) derived from Human cervix adenocarcinoma as cancer-derived cells was compared using a confocal microscope (Carl Zeisse, Germany).
Particularly, before a test, the HeLa cells were cultured in a 12-well culture plate with a glass cover slip for 24 hours. The HeLa cells were cultured in a DMEM medium containing 10% fetal bovine serum (FBS), and 1% penicillin/streptomycin (10,000 units penicillin and 10,000 μg/mL streptomycin, invitrogen), in a humidified atmosphere with 5% CO2 at 37° C. After 5 μM of peptides was treated to the […] for 1 hour, the cells were fixed with 4% paraformaldehyde (PFA) at room temperature for 20 minutes to observe the cell permeability using a confocal microscope.
To directly detect internalized MTD-FITC, the cells were washed three times with phosphoric acid buffer and 5 μM of 4′,6-diamidino-2-phenylindole (DAPI), which is a nucleus fluorescence staining solution, was counter-stained. […] In addition, an original form of the cell was observed using a nomarski filter with a confocal microscope, and FITC fluorescence and DAPI fluorescence were observed using a filter suitable for a fluorochrome.

human skin = assay: Primary stimulus test using human skin (patch test); assay type: in vivo; details: overall evaluation from Table 4
Experimental: To confirm safety of the modified MTD (M1067) synthesized in Example 4, the modified MTD (M1067)-coumaric acid and the modified MTD (M1067)-acetyl pentapeptide synthesized in Examples 12-1 and 12-2, a primary stimulus test using human skin was performed. The test was conducted by a specialized clinical research organization, Dermapro, and the clinical composition was prepared as will be described below. 30 or more subjects meeting standards for the clinical test and not falling under exclusion standards were selected. Sample materials were applied to backs of the subjects, and removed after 48 hours. The test sites were observed 30 minutes and 24 hours later, after the removal.
The skin evaluation was performed by the Frosch & Kligman method (Frosch P. J and Kligman A. M. J Am Acad Dermatol, 1(1):35-41 (1979)) and standards shown in Table 3 reflecting the Cosmetic, Toiletry, and Fragrance Association (CTFA) guidelines (The Cosmetic, Toiletry and Fragrance Association, Inc. Washington, D.C. 20005 (1981)), average degrees of reaction after 48 and 72 hours were compared, and results were determined based on the average degree of reaction of each composition.

ICR mice = assay: In vivo epithelial tissue (skin) permeability by confocal microscopy; design: species or system mouse; details: FITC-labelled, applied on gauze to back skin, 1, 3, 6 and 12 hours; FIG. 12
Experimental: After 1, 3, 6, and 12 hours, the mice were sacrificed by cervical dislocation, and skin at the drug-applied parts was extracted. Afterward, the skin was put in 4% paraformaldehyde for 24 hours to fix a tissue and then prepared in a 6 μm cryosection to form a slide. […] The stained tissue was washed again three times with PBS buffer for 10 minutes, fixed with mounting media, and observed by confocal microscopy.

Compound | intracellular localization of the FITC-peptide (HeLa cells) | evaluation in the human skin primary stimulus test (human skin) | epithelial permeation (ICR mice)
M1103: modified MTD having an amino acid sequence of SEQ. ID. NO: 17 (MRLALPVLLLA; MTD 1103 Amino Acid Sequence) | apparently distributed into a cytoplasm |  | 
CSCC[C@H](NC(=O)[C@H](CCCNC(=N)N)NC(=O)[C@H](C)NC(=O)[C@H](C)NC(=O)[C@H](C)NC(=O)[C@@H]1CCCN1C(=O)[C@H](C)NC(=O)[C@@H](NC(=O)[C@H](C)NC(=O)[C@H](C)NC(=O)C=Cc1ccc(O)cc1)C(C)C)C(=O)O [modified MTD (M1067)-coumaric acid] (X1-AAVAPAAARM-OH) |  | low-stimuli materials | 
Met Arg Ala Ala Ala Pro Ala Val Ala Ala Lys*Ther Ther Lys Ser [modified MTD (M1067)-acetyl pentapeptide] |  | low-stimuli materials | 
CSCC[C@H](N)C(=O)N[C@@H](CCCNC(=N)N)C(=O)N[C@@H](C)C(=O)N[C@@H](C)C(=O)N[C@@H](C)C(=O)N1CCC[C@H]1C(=O)N[C@@H](C)C(=O)N[C@H](C(=O)N[C@@H](C)C(=O)N[C@@H](C)C(=O)O)C(C)C [M1067] (H-MRAAAPAVAA-OH) |  | low-stimuli materials | 
GRKKRRQRRR (also: FITC label, place not given here) [Tat, used FITC-labelled, reference compound] | attached to an outside of the cell membrane |  | epithelial permeation was not induced
